Source: PMC8064090 (Biomolecules, 2021)
Read-outs that look alike come from different tables or passages of the source.

What was measured:
[1] = molecular target: T1, wild type (WT) South African HIV-1 subtype C protease (HIV-1 PR) (Human immunodeficiency virus type 1 group M subtype C, UniProt O12158); assay: Enzyme inhibition assay with chromogenic substrate (Dixon method), wild type PR; assay type: biochemical; details: for Relative Resistance: WT, Ki of mutant/Ki of WT
Protocol: (§1) HIV-1 PR activity was measured by adding a purified enzyme (100–300 nM) to 300 µM of the chromogenic substrate Lys-Ala-Arg-Val-Nle-p-nitro-Phe-Glu-Ala-Nle amide (Sigma-Aldrich, St. Louis, MO, USA) dissolved in buffer D (50 mM sodium acetate buffer containing 100 mM NaCl (pH 5.0)) at 37 °C. The change in absorbance upon hydrolysis of the substrate by HIV-1 PR was monitored, and an extinction coefficient of 1800 M-1 cm-1 at a wavelength of 300 nm was used to convert the absorbance change to reaction rates. […] The data obtained were analyzed by plotting the reciprocal of substrate hydrolysis against substrate concentration (Lineweaver–Burk method to determine the Km and Kcat) and inhibitor concentration (Dixon method to determine the Ki) respectively.

[2] = molecular target: T2, HIV-1 PR MUT-1 (M46I, I54V, V82A, L10F) (Human immunodeficiency virus type 1 group M subtype C, UniProt O12158, I538V/L494F/M530I/V566A); assay: biochemical
T2 sequence (O12158 485-583 L494F/M530I/I538V/V566A): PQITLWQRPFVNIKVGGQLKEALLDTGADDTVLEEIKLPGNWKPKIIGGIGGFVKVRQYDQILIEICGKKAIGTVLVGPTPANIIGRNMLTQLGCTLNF
Protocol: as §1

[3] = system: HIV-1 PR MUT-1 (M46I, I54V, V82A, L10F); assay: biochemical; details: MUT-1; Ki of mutant/Ki of WT
Protocol: as §1

[4] = molecular target: HIV-1 PR MUT-2 (M46I, I54V, L76V, V82A, L33F, L10F) (Human immunodeficiency virus type 1 group M subtype C, UniProt O12158, I538V/L494F/L517F/L560V/M530I/V566A); assay: biochemical
Chain of HIV-1 PR MUT-2 (M46I, I54V, L76V, V82A, L33F, L10F) (Human immunodeficiency virus type 1 group M subtype C, UniProt O12158, I538V/L494F/L517F/L560V/M530I/V566A) (O12158 485-583 L494F/L517F/M530I/I538V/L560V/V566A): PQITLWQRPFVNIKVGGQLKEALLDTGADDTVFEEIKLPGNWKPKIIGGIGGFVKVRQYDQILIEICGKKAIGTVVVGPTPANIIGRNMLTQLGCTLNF
Protocol: as §1

[5] = system: HIV-1 PR MUT-2 (M46I, I54V, L76V, V82A, L33F, L10F); assay: biochemical; details: MUT-2; Ki of mutant/Ki of WT
Protocol: as §1

[6] = molecular target: T3, HIV-1 PR MUT-3 (M46I, I54V, L76V, V82A, L90M, F53L) (Human immunodeficiency virus type 1 group M subtype C, UniProt O12158, F537L/I538V/L560V/L574M/M530I/V566A); assay: biochemical
T3 sequence (O12158 485-583 M530I/F537L/I538V/L560V/V566A/L574M): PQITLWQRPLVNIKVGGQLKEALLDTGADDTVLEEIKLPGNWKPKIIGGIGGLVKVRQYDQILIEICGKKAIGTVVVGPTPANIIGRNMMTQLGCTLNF
Protocol: as §1

[7] = system: HIV-1 PR MUT-3 (M46I, I54V, L76V, V82A, L90M, F53L); assay: biochemical; details: MUT-3; Ki of mutant/Ki of WT
Protocol: as §1

[8] = molecular target: T1, wild type (WT) South African HIV-1 subtype C protease (HIV-1 PR); assay: Intrinsic tryptophan fluorescence quenching assay, wild type PR; assay type: binding
Protocol: (§2) Fluorescent spectra were recorded as described previously using a PerkinElmer LS 55 spectrometer with a 1.0 cm quartz cell (PerkinElmer, Waltham, MA, USA) and connected to a thermostat-controlled bath. This assay utilized the intrinsic tryptophan (Trp) fluorescence by causing the excitation of the π–π* transition in the tryptophan residues. Two Trp residues are found at positions 6 and 42 in each monomer of HIV-1 PR. Trp 6 is located close to the active site, and Trp 42 is found close to the flap of the HIV-1 PR. The position of the Trp residues on the enzyme surface makes them good probes in monitoring changes in the HIV-1 PR tertiary structure. The protein was excited at 295 nm, and fluorescence measurements were recorded from 300 to 420 nm at room temperature (25 °C). The excitation and emission slit widths were set at 5 nm, and the fluorescence spectra were acquired at 500 nm/min. The obtained fluorescence data was corrected and smoothened by running control samples of the buffer. For the fluorescence quenching study, […] of HIV-1 PR and varying inhibitor concentration from 10 to 500 nM were used. For every reaction, a new enzyme solution was used. The decrease in intrinsic Trp fluorescence (F0–F) at each concentration of inhibitor was fitted to the equation (F0–F) = ΔFmax/(1 + (Ki/[I]) to determine Ki and ΔFmax values using the Origin(Pro), 2019 (OriginLab Corporation, Northampton, MA, USA). The Stern–Volmer quenching constants (Ksv) were also calculated by fitting the data into the equation F0/F = 1 + Ksv (Q). The Stern–Volmer constant reports the accessibility of fluorophores to a quencher and the solvent accessibility of the fluorophore. Thus, it is an essential tool that can be used to probe the conformational changes around a fluorophore in proteins. […] The inner filter effect was corrected by using the formula Fc = Fantilog[(Aex + Aem)/2], where Fc is the corrected measurement and F is the measured fluorescence intensities, respectively, Aex is solution absorbance at the excitation, and Aem emission wavelengths.

[9] = molecular target: T4, HIV-1 PR MUT-2 (M46I, I54V, L76V, V82A, L10F, L33F) (Human immunodeficiency virus type 1 group M subtype C, UniProt O12158, I538V/L494F/L517F/L560V/M530I/V566A); assay: Intrinsic tryptophan fluorescence quenching assay, MUT-2 PR; assay type: binding, HIV-1 subtype C; details: MUT-2 HIV-1 PR; for Ki: tryptophan fluorescence, 25 °C
T4 construct: The HIV-1 PR is a 99 amino acid homodimer; made in house; host or cells: Escherichia coli (NEBExpress)
T4 sequence (O12158 485-583 L494F/L517F/M530I/I538V/L560V/V566A): as the sequence (O12158 485-583 L494F/L517F/M530I/I538V/L560V/V566A) above
Protocol: as §2, with “used.” for “used. The decrease in intrinsic Trp fluorescence (F0–F) at each concentration of inhibitor was fitted to the equation (F0–F) = ΔFmax/(1 + (Ki/[I]) to determine Ki and ΔFmax values using the Origin(Pro), 2019 (OriginLab Corporation, Northampton, MA, USA). The Stern–Volmer quenching constants (Ksv) were also calculated by fitting the data into the equation F0/F = 1 + Ksv (Q). The Stern–Volmer constant reports the accessibility of fluorophores to a quencher and the solvent accessibility of the fluorophore. Thus, it is an essential tool that can be used to probe the conformational changes around a fluorophore in proteins.”

[10] = molecular target: wild type South African HIV-1 subtype C PR; details: previous study ref 71; cited from earlier work
[11] = molecular target: wild-type subtype B HIV-1 PR; details: cited from earlier work
[12] = molecular target: multidrug-resistant forms of HIV-1 subtype B PR harboring numerous major and minor mutations; details: cited from earlier work
[13] = molecular target: T2, HIV-1 PR MUT-1 (M46I, I54V, V82A, L10F); assay: biochemical; assay type: binding, HIV-1 subtype C; parameters: The HIV-1 PR is a 99 amino acid homodimer; made in house; host or cells: Escherichia coli (NEBExpress); details: for Stern–Volmer quenching constant (Ksv): MUT-1 HIV-1 PR
Protocol: as §2, with “used.” for “used. The decrease in intrinsic Trp fluorescence (F0–F) at each concentration of inhibitor was fitted to the equation (F0–F) = ΔFmax/(1 + (Ki/[I]) to determine Ki and ΔFmax values using the Origin(Pro), 2019 (OriginLab Corporation, Northampton, MA, USA). The Stern–Volmer quenching constants (Ksv) were also calculated by fitting the data into the equation F0/F = 1 + Ksv (Q). The Stern–Volmer constant reports the accessibility of fluorophores to a quencher and the solvent accessibility of the fluorophore. Thus, it is an essential tool that can be used to probe the conformational changes around a fluorophore in proteins.”

[14] = molecular target: T3, HIV-1 PR MUT-3 (M46I, I54V, L76V, V82A, L90M, F53L); assay: biochemical; assay type: binding, HIV-1 subtype C; parameters: The HIV-1 PR is a 99 amino acid homodimer; made in house; host or cells: Escherichia coli (NEBExpress); details: for Stern–Volmer quenching constant (Ksv): MUT-3 HIV-1 PR
Protocol: as §2, with “used.” for “used. The decrease in intrinsic Trp fluorescence (F0–F) at each concentration of inhibitor was fitted to the equation (F0–F) = ΔFmax/(1 + (Ki/[I]) to determine Ki and ΔFmax values using the Origin(Pro), 2019 (OriginLab Corporation, Northampton, MA, USA). The Stern–Volmer quenching constants (Ksv) were also calculated by fitting the data into the equation F0/F = 1 + Ksv (Q). The Stern–Volmer constant reports the accessibility of fluorophores to a quencher and the solvent accessibility of the fluorophore. Thus, it is an essential tool that can be used to probe the conformational changes around a fluorophore in proteins.”

T1 sequence (O12158 485-583): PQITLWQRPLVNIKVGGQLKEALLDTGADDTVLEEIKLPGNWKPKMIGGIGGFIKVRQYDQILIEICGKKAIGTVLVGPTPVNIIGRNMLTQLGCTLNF

SMILES	Ki [1] [nM]	Relative Resistance [1]	Ki [2] [nM]	Ki [4] [nM]	Ki [6] [nM]	Ki [8] [nM]	Stern–Volmer quenching constant (Ksv) [9] [nM⁻¹]	Ki [9] [nM]	Ki [10] [nM]	Ki [13] [nM]	Stern–Volmer quenching constant (Ksv) [13] [nM⁻¹]	Ki [14] [nM]	Stern–Volmer quenching constant (Ksv) [14] [nM⁻¹]	further results
Cc1cccc(C)c1OCC(=O)N[C@@H](Cc1ccccc1)[C@@H](O)C[C@H](Cc1ccccc1)NC(=O)[C@H](C(C)C)N1CCCNC1=O [LPV, lopinavir]	2.13 ± 0.23	1.00	46.5 ± 0.14	52.6 ± 0.65	76.26 ± 0.09	17.2	0.004	79.5	2.1 ± 0.2	54.7	0.004	113	0.003	Relative Resistance [3]: 21.83; Relative Resistance [5]: 24.71; Relative Resistance [7]: 35.80; Stern–Volmer quenching constant (Ksv) [8]: 0.02 nM⁻¹; Ki ([11]; wild-type subtype B HIV-1 PR): ~0.02 nM; Ki [12]: 0.44 to 260 nM
CC(C)CN(C[C@@H](O)[C@H](Cc1ccccc1)NC(=O)O[C@H]1CO[C@H]2OCC[C@H]21)S(=O)(=O)c1ccc(N)cc1 [DRV, darunavir]	1.58 ± 0.11	1.00	5.53 ± 0.09	7.8 ± 0.71	11.5 ± 1.09	8.12	0.009	32.9	1.4 ± 0.2	26.3	0.01	44.7	0.005	Stern–Volmer quenching constant (Ksv) ([8]; WT HIV-1 PR): 0.030 nM⁻¹; Ki ([11]; wild type subtype B HIV-1 PR): ~0.005 nM
